In brackets after ≈: the same amount, converted by molar mass.
Columns and labels:
[1] = tested on: Ig fractions of the antisera raised to Immunogen 4; experiment: Competitive ELISA with antibodies raised to Immunogen 4 (Randox immunoassay of the invention); assay type: binding, sheep; settings: for CR (cross-reactivity): relative to meprobamate = 100%; for % CR: based on 100% specificity to meprobamate
Method: An aqueous solution of Immunogen 4 was formulated with Freund's Complete Adjuvant (FCA) to form an emulsion consisting of 2 mg/ml immunogen in 50% (v/v) FCA. Three sheep were immunised with this emulsion (1° immunisation), 0.25 ml being intramuscularly injected at each of four sites in the rump of each animal. Subsequent immunizations (boosts) contained 1 mg/ml immunogen. All boosts were emulsified in 50% (v/v) Freund's Incomplete Adjuvant (FIA) and were administered in the same manner as the 1° immunisation, at monthly intervals for 1 year. Blood sampling took place 7 to 14 days after each boost. Each sample was processed to produce antiserum, which was further purified by caprylic acid and ammonium sulfate precipitation to yield an immunoglobulin (Ig) fraction. The Ig fraction was evaluated by competitive ELISA microtiter plate assay, as described in Example 16.
The wells of an enhanced binding 96 well polystyrene microtiter plate were coated with a mixture of the Ig fractions of the antisera raised to Immunogen 4, diluted in 10 mM Tris, pH8.5 (125 μl/well). The appropriate antibody coating dilution was determined using standard ELISA checkerboard techniques. The plate was incubated for 2 hours at 37° C., washed 4 times with Tris buffered saline containing Tween 20 (TBST) and tapped dry. Standard solutions of meprobamate, carisoprodol and mebutamate were prepared in TBST at 0, 0.1, 1.0, 5, 10, 25, 50 and 100 ng/ml, and 50 μl of each was added to the appropriate wells.
The conjugate prepared in Example 14 diluted in Tris buffer (pH 7.2) containing EDTA, D-mannitol, sucrose, thimerosal and BSA, was added to each of the wells. The appropriate dilution of conjugate was also determined using standard ELISA checkerboard techniques. The plate was incubated at 25° C. for 1 hour. Excess unbound conjugate was removed by washing 6 times over a 10 minute period with TBST. 125 μl of tetramethylbenzidine (TMB) substrate solution was added to each well of the plate that was then incubated for 20 minutes in the dark at room temperature. The reaction was terminated by addition of 125 μl 0.2M H2SO4 to each well. The absorbance was then measured at 450 nm using a microtiter plate reader.

[2] = tested on: carisoprodol-specific antibody raised from Immunogen 2; experiment: Immunoassay with carisoprodol-specific antibody raised from Immunogen 2 (Table 1); assay type: binding; settings: Table 1, antibody raised from Immunogen 2 as titled
[3] = tested on: Immunalysis immunoassay antibody; settings: Table 2, Immunalysis; data from Robertson and Marinetti, 2003; cited from earlier work
IDS immunoassay antibody = settings: Table 2, IDS commercial immunoassay; cited from earlier work
[4] = cited from earlier work
[5] = Table 2, Randox immunoassay, concentration producing 50% B/B0
[6] = competitive ELISA, Hapten-B-HRP conjugate, absorbance 450 nm, standard concentration producing 50% B/B0

For CCC(C)C(C)(COC(N)=O)COC(N)=O (centres unmarked) [mebutamate], the “CR (cross-reactivity)” value ([1]; competitive ELISA) was 7%.

For CCCC(C)(COC(N)=O)COC(=O)NC(C)C (centres unmarked) [carisoprodol], the “% CR” value [2] was 57%, the IC50 [2] was 0.015 µg/mL (≈ 0.0576 µM) and the “% CR” value ([1]; Table 2, Randox immunoassay) was 57%. For the same compound, the IC50 [1, 5] was 0.015 µg/mL, the IC50 [1, 6] was 0.01515 µg/mL and the “CR (cross-reactivity)” value ([1]; competitive ELISA) was 57%. The “% CR” value [3] was 100%, the IC50 [3] was 0.025 µg/mL (≈ 0.096 µM) and the “% CR” value (IDS immunoassay antibody) was 100%. For the same compound, the IC50 (IDS immunoassay antibody) was 0.0006 µg/mL (≈ 0.0023 µM), the serum half-life ([4]; serum) was “under 2 hours” and the “time detectable in serum” value ([4]; serum, not detectable beyond this time (Olsen et al 1994)) was no more than 12 h. The “excreted unchanged in urine” value ([4]; single orally administered carisoprodol tablet (350 mg)) was “less than 1%”.

For CCCC(C)(COC(N)=O)COC(N)=O [meprobamate], the “% CR” value [2] was 100%, the IC50 [2] was 0.008 µg/mL (≈ 0.0367 µM) and the “% CR” value ([1]; Table 2, Randox immunoassay) was 100%. The IC50 [1, 5] was 0.008 µg/mL, the IC50 [1, 6] was 0.00864 µg/mL and the “CR (cross-reactivity)” value ([1]; competitive ELISA) was 100%. The “% CR” value [3] was 19%, the IC50 [3] was 0.132 µg/mL (≈ 0.605 µM) and the “% CR” value (IDS immunoassay antibody) was less than 0.01%. The IC50 (IDS immunoassay antibody) was greater than 6 µg/mL, the plasma half-life ([4]; plasma) was 6 to 16 h and the “excreted unchanged in the urine” value ([4]; urine) was 10-12%.

From US20120040378A1, “Meprobromate Immunoassay” (RANDOX LABORATORIES LIMITED, priority 2010, published 2012)
